According to publication PMC7408964, “Efficient Therapeutic Delivery by a Novel Cell-Penetrating Peptide Derived from Acinus” (Cancers, 2020):
Where no end group is shown, it is not given here.

How the values were obtained:
[1] = tested on: HUT78 Sézary cells; assay: Cell viability, MTT assay, HUT78 cells (with or without cell death inhibitors); assay type: cell-based; conditions: 20 h; for effect of pan-caspase inhibitor zVAD-fmk on peptide-induced cytotoxicity: increasing peptide concentrations, 50 μM zVAD-fmk, MTT, n = 3
Description: (§3) Cells survival was assessed with the CellTiter 96® Aqueous One Solution Cell Proliferation Assay kit (Promega, Madison, WI, USA).

[2] = tested on: non-malignant CD4+ T-cells, CD3+CD4+Vβ− cells; assay: Ex vivo cell death in Sézary patients' PBMC, 7-AAD flow cytometry, non-malignant CD4+ T-cells; assay type: cell-based, human; conditions: increasing concentrations, 4 h, 37 °C, PBMC of three patients
Source text: (§1) SS diagnosis was established on recognized international clinical, histological, and biological criteria. Blood from SS patients with more than 90% of malignant CD4^+ T cells (identified by their TCR-Vβ rearrangement) was collected for the present study, which was approved by the institutional ethics committee (Saint Louis Hospital, Paris. Protocol no. 2011-oct.12735). Peripheral blood mononuclear cells (PBMC) were isolated from heparinized venous blood by density gradient centrifugation over lymphocytes separating medium (LSM; PAA Laboratories, Les Mureaux, France). The Sézary cell line HUT78 was amplified as previously described and cultured in RPMI 1640 supplemented with 2 mM L-glutamine, 1% penicillin-streptomycin (Invitrogen) and 10% heat-inactivated fetal calf serum (Life Technologies). All other cell lines were cultured in DMEM supplemented with 2 mM L-glutamine, 1% penicillin-streptomycin (Invitrogen) and 10% heat-inactivated fetal calf serum (Life Technologies).
(§2) PBMC exposed or not to RT33 or RT33 DR were processed for flow cytometry to assess cell death. Cells were labelled with a mix of anti-TCR-Vβ-FITC, -CD3-PE, and -CD4-PE-Cy7 mAbs (Beckman Coulter). Detection of apoptotic cells was performed using 7 AAD (BD Biosciences). Cells were analyzed on a CytoFlex cytometer (Beckman Coulter) and data treated with FlowJo software.

[3] = tested on: non T-cells, CD3− cells; assay: Ex vivo cell death in Sézary patients' PBMC, 7-AAD flow cytometry, non T-cells; assay type: cell-based, human; conditions: increasing concentrations, 4 h, 37 °C, PBMC of three patients
Source text: as §1, §2

[4] = tested on: normal (HaCat, MRC-5) cells; assay: Cell viability, MTT assay, normal cells; assay type: cell-based; conditions: increasing concentrations, 20 h, n = 3
Description: as §3

[5] = tested on: HUT78 Sézary cells xenograft; assay: Sub-cutaneous xenograft mouse model for the Sézary syndrome; assay type: in vivo, NOD/SCID gamma (NSG) mice; conditions: 5 mg/kg daily i.p.
Source text: Animal experiments were approved by The University Board Ethics Committee for Experimental Animal Studies (#2303.01). Xenograft tumors were obtained by subcutaneous injection of 10^6 HUT78 cells in the right flank of 8-week-old female NOD-SCID-gamma (NSG) mice, bred and housed under pathogen-free conditions at our animal facility (IUH, Saint Louis Hospital, Paris, France). Treatment started after randomization when tumors were visible and consisted of daily intraperitoneal (i.p.) injection of normal saline or RT33 or RT33 DR in normal saline (n = 5 per group). Tumor volume was measured every other day and calculated as: long axis × short axis^2 × 0.5. Animals were euthanized after 21 days of treatment or when tumor size reached the ethical end point and visceral organs were excised for a gross pathological examination. Tumors were fixed in 4% neutral buffered formalin and embedded in paraffin. Sections (4 µm) were stained with hematoxylin-eosin (H&E) and subjected to microscopic analysis and image recording. Histological analysis was performed at the HistIM facility of Cochin Institute (Paris, France). Slides were imaged using a Lamina multilabel slide scanner (Perkin Elmer).

Q: Which “cell viability, AAC-11 portion alone” value ([1]; 20 µM, MTT assay, n = 3 (Supplementary Figure S4)) does the source give for “AAC-11 specific portion: peptide comprising AAC-11 residues 377 to 399, without CPP (LQYFARGLQVYIRQLRLALQGKT; UniProt Q9BZZ5 377-399, looked up, fragment) [reference compound]” here?
A: Its value is “nor the AAC-11 specific portion alone (Supplementary Figure S4) decreased cell viability”.

Q: RSRSRDRRRK [hAP10] was tested. Which “cell death / viability of non-malignant CD4+ T-cells (7-AAD+)” value [2] did it give?
A: Its value is “did not induce cell death”.

Q: And the “cell death / viability of non T-cells (7-AAD+)” value [3]?
A: Its value is “did not induce cell death”.

Q: For “RSRSRDRRRKLQYFARGLQVYIRQLRLALQGKT [RT33]”, which “cell viability of normal cells” value [4] is on record?
A: Its value is “sparing the normal cells tested”.

Q: What about the “effect of pan-caspase inhibitor zVAD-fmk on peptide-induced cytotoxicity” value [1] of the same substance?
A: Its value is “did not block”.

Q: And the “cell death / viability of non-malignant CD4+ T-cells (7-AAD+)” value [2]?
A: Its value is “neither peptide decreased cell viability”.

Q: And the “cell death / viability of non T-cells (7-AAD+)” value [3]?
A: The value was “neither peptide decreased cell viability”.

Q: And the “clinical symptoms during the experimental period” value [5]?
A: The value was “No obvious clinical symptoms”.

Q: What does the source list for RSRSRRRRRK [hAP10DR]?
A: cell death / viability of non-malignant CD4+ T-cells (7-AAD+) [2]: did not induce cell death; cell death / viability of non T-cells (7-AAD+) [3]: did not induce cell death

Q: Which results are given for “RSRSRRRRRKLQYFARGLQVYIRQLRLALQGKT [RT33DR]”?
A: cell viability of normal cells [4]: sparing the normal cells tested; effect of pan-caspase inhibitor zVAD-fmk on peptide-induced cytotoxicity [1]: did not block; cell death / viability of non-malignant CD4+ T-cells (7-AAD+) [2]: neither peptide decreased cell viability; cell death / viability of non T-cells (7-AAD+) [3]: neither peptide decreased cell viability; clinical symptoms during the experimental period [5]: No obvious clinical symptoms
